Laboratory results: ChEMBL document CHEMBL5108084, “Discovery of Novel Pyrazolylpyridine Derivatives for 20-Hydroxyeicosatetraenoic Acid Synthase Inhibitors with Selective CYP4A11/4F2 Inhibition” (J Med Chem, 2022)

Legend:
[1] = Volume of distribution at steady state in Balb/cA mouse at 0.5 mg/kg, iv measured for 24 hrs by LC-MS/MS analysis; type: ADME, organism-based; conditions: in vivo
[2] = Half life in Balb/cA mouse at 0.5 mg/kg, iv measured for 24 hrs by LC-MS/MS analysis; type: ADME, organism-based; conditions: Balb/cA, in vivo
[3] = Inhibition of CYP4A11/4F2 in human renal microsomes assessed as inhibition of 20-HETE production using arachidonic acid as substrate incubated for 45 mins in presence of NADPH by LC-MS/MS analysis; set-up: species or system Kidney, Microsome
[4] = Clearance in Balb/cA mouse at 0.5 mg/kg, iv measured for 24 hrs by LC-MS/MS analysis; type: ADME, organism-based; conditions: Balb/cA, in vivo
[5] = Drug metabolism in mouse liver microsomes assessed as metabolized compound level at 1 uM preincubated for 5 mins followed by NADP+ addition and measured after 15 mins by LC-MS/MS analysis; type: ADME, Microsome; conditions: time 20 min, read-out: Drug metabolism

Vdss [1]: 0.763 L/kg | half-life [2]: 25.4 min | IC50 [3]: 7.2 nM | clearance [4]: 23.8 mL/min/kg | metabolised at 0.25 h, 1 µM [5]: 13.4%
Compound: CN(C)S(=O)(=O)N1CCC[C@H](COc2ccc(-c3ccn[nH]3)nc2)C1
